Assay results as given in PubChem BioAssay (NCI).
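Protocol summary: plate cells (96-well), add compound at 5 concentrations, incubate 48 h, interpolate endpoints linearly. Here, GI50 denotes the concentration required for 50% inhibition of growth. The concentration for full growth arrest is given as TGI.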

Tests used:
Assay in all cases: NCI anticancer screen, dose series, 48 h
NCI-H460 lung = tested on: NCI-H460 lung
RXF 393 renal = tested on: RXF 393 renal
786-0 renal = tested on: 786-0 renal
NCI-H522 lung = tested on: NCI-H522 lung
UACC-257 melanoma = tested on: UACC-257 melanoma
SK-MEL-5 melanoma = tested on: SK-MEL-5 melanoma
MOLT-4 leukemia = tested on: MOLT-4 leukemia
DU-145 prostate = tested on: DU-145 prostate
NCI-H226 lung = tested on: NCI-H226 lung
COLO 205 colon = tested on: COLO 205 colon

| SMILES | TGI (NCI-H460 lung) | TGI (RXF 393 renal) | TGI (786-0 renal) | TGI (NCI-H522 lung) | TGI (UACC-257 melanoma) | TGI (SK-MEL-5 melanoma) | TGI (MOLT-4 leukemia) | TGI (DU-145 prostate) | TGI (NCI-H226 lung) | TGI (COLO 205 colon) | GI50 (DU-145 prostate) | GI50 (NCI-H460 lung) | GI50 (NCI-H226 lung) | GI50 (RXF 393 renal) | GI50 (786-0 renal) | GI50 (NCI-H522 lung) | GI50 (UACC-257 melanoma) | GI50 (MOLT-4 leukemia) | GI50 (COLO 205 colon) | GI50 (SK-MEL-5 melanoma) |
| --- | --- | --- | --- | --- | --- | --- | --- | --- | --- | --- | --- | --- | --- | --- | --- | --- | --- | --- | --- | --- |
| CCCCCCCCCCCCCCCc1nc(SCC(=O)O)n[nH]1 | > 100 µM | > 100 µM | 42.1 µM | > 100 µM | > 100 µM | > 100 µM | > 100 µM |  |  |  |  |  |  |  |  |  |  |  |  |  |
| CC(=O)O[C@H]1CC[C@@]2(C)[C@@H](CC[C@@H]3[C@@H]2CC(=O)[C@@]2(C)[C@H]3C[C@@H]3CC(C)=CC(=O)[C@@H]32)C1 |  | 86.7 µM | > 100 µM | > 100 µM | > 100 µM | > 100 µM |  | > 100 µM | > 100 µM | > 100 µM |  |  |  |  |  |  |  |  |  |  |
| CC/C(=C(/c1ccc(Cl)cc1)c1ccc(OCCCN(C)C)cc1)c1ccc(OC)cc1 | 2.46 µM | 3.45 µM | 1.46 µM | 13.7 µM | 15 µM |  | 2.53 µM | 10.1 µM | 18.3 µM | 1.77 µM | 3.48 µM | 1.1 µM | 7.7 µM | 1.16 µM | 0.771 µM | 6.56 µM | 7.93 µM | 1.05 µM | 0.915 µM |  |
| OC1/C(=C/c2ccccc2)CNC/C1=C\c1ccccc1 (stereo not drawn) | > 100 µM | > 100 µM | > 100 µM | > 100 µM | > 100 µM | > 100 µM | > 100 µM |  |  | > 100 µM |  |  |  |  |  |  |  |  |  |  |
| C/C(=N\O)c1ccc(Nc2cc(-c3ccccc3)nc3c(O)cccc23)cc1 |  | 24.7 µM | 31.8 µM | 33.3 µM | 24.4 µM |  |  | 28.5 µM | 31.8 µM | 42.6 µM | 13.5 µM |  | 14.7 µM | 7.47 µM | 17.2 µM | 16.7 µM | 11.7 µM |  | 20.7 µM |  |
| Cn1c(=O)c2nc3sc4ccccc4c(=N)n3c2n(C)c1=O | > 100 µM | > 100 µM | > 100 µM | > 100 µM | > 100 µM | > 100 µM | > 100 µM |  | > 100 µM | > 100 µM |  |  |  |  |  |  |  |  |  |  |
| COc1ccccc1NC(=O)C(=O)C(C#N)CC(C)(C)C=O (stereo not drawn) | > 100 µM | > 100 µM | > 100 µM | > 100 µM | > 100 µM | > 100 µM | > 100 µM |  | > 100 µM |  |  |  |  |  |  |  |  |  |  |  |
| O=C1OC(/C=C/c2ccccc2)C(=O)C1=O (stereo not drawn) | > 100 µM | > 100 µM | > 100 µM | > 100 µM | > 100 µM |  | > 100 µM |  | > 100 µM | > 100 µM |  |  |  |  |  |  |  |  |  |  |
| COc1cc(/C=C/C(=O)c2ccc(SC)cc2)cc(OC)c1OC | 32.6 µM | 7.01 µM | 20.4 µM | 23.8 µM | 18.1 µM | 24.5 µM | 8.65 µM | 26.4 µM |  | 31.5 µM | 12.8 µM | 15 µM |  | 2.62 µM | 6.43 µM | 8.82 µM | 5.45 µM | 3.14 µM | 13.3 µM | 12 µM |
| CC12CCC(C)(c3cc(O)c(O)cc31)c1cc(O)c(O)cc12 | 35.7 µM | 31.3 µM | 27.9 µM | 6.38 µM | 29.8 µM | 36.4 µM | 42.5 µM |  |  | 30 µM |  |  |  |  |  |  |  |  |  |  |
| O=c1c2ccc(Br)cc2nc(-c2ccccc2)n1NC1OC(CO)C(O)C(O)C1O (stereo not drawn) | > 100 µM |  | > 100 µM | > 100 µM | > 100 µM | > 100 µM | > 100 µM |  | > 100 µM | > 100 µM |  |  |  |  |  |  |  |  |  |  |
| CCOC(=O)/C(C#N)=C/c1[nH]c(C)c(C)c1C | > 100 µM | > 100 µM | > 100 µM | > 100 µM | > 100 µM | > 100 µM | > 100 µM |  | > 100 µM | > 100 µM |  |  |  |  |  |  |  |  |  |  |
| O=C(NCCOCCO)c1ccc(O)cc1 | > 100 µM | > 100 µM | > 100 µM | > 100 µM |  | > 100 µM | > 100 µM |  |  | > 100 µM |  |  |  |  |  |  |  |  |  |  |
| COc1ccc(/C=N/C2=C(C#N)C(c3ccccc3)c3ccc4ccccc4c3O2)cc1 (stereo not drawn) | > 100 µM |  | > 100 µM | 5.5 µM | > 100 µM | 7.95 µM | > 100 µM | > 100 µM | > 100 µM | 8.49 µM | 0.428 µM | 0.363 µM | 2.08 µM |  | 0.492 µM | 0.128 µM | > 84.5 µM | 0.516 µM | 0.719 µM | 0.336 µM |
| CCC1(O)CC(c2ccccc2)N(C)C(c2ccccc2)C1 (stereo not drawn) | > 100 µM | > 100 µM | > 100 µM | > 100 µM | > 100 µM | > 100 µM | > 100 µM |  | > 100 µM | > 100 µM |  |  |  |  |  |  |  |  |  |  |
| COc1cc(C2C(C(=O)Nc3ccccc3C)=C(C)NC(C)=C2C(=O)Nc2ccccc2C)ccc1O | > 100 µM | > 100 µM | > 100 µM | > 100 µM | > 100 µM | > 100 µM | > 100 µM |  | > 100 µM | > 100 µM |  |  |  |  |  |  |  |  |  |  |
| c1ccc2c(c1)-c1nc3ccccc3cc1C2N1CCOCC1 (stereo not drawn) |  | > 100 µM | > 100 µM | > 100 µM | > 100 µM | > 100 µM | > 100 µM | > 100 µM | > 100 µM | > 100 µM |  |  |  |  |  |  |  |  |  |  |
| C[C@]12CC[C@H](O)CC1CCC[C@@H]2O (stereo partly drawn) | > 100 µM | > 100 µM | > 100 µM | > 100 µM | > 100 µM | > 100 µM | > 100 µM |  |  | > 100 µM |  |  |  |  |  |  |  |  |  |  |
| CCN(CC)[C@@H]1c2cc3c(cc2C(c2cc(OC)c(O)c(OC)c2)C2C(=O)CO[C@@H]21)OCO3 (stereo partly drawn) | > 100 µM | > 100 µM | > 100 µM | > 100 µM | > 100 µM | > 100 µM | > 100 µM |  | > 100 µM | > 100 µM |  |  |  |  |  |  |  |  |  |  |
| O=C(O)c1cccc(F)c1C(=O)c1ccc2ccccc2c1 | > 100 µM | > 100 µM | > 100 µM | > 100 µM | > 100 µM |  |  |  | > 100 µM | 6.1 µM |  |  |  |  |  |  |  |  |  |  |
| Fc1cccc(C2SCc3nc4ccccc4n32)c1 (stereo not drawn) | > 100 µM | > 10 µM | > 100 µM | 96.1 µM | 69.1 µM | 29.4 µM | > 100 µM |  | > 100 µM | > 100 µM |  |  |  |  |  |  |  |  |  |  |
